Measurements: paper PMC4763415, “Platinum (IV)-fatty acid conjugates overcome inherently and acquired Cisplatin resistant cancer cell lines: an in-vitro study” (BMC Cancer, 2016)
pIC50: −log10 of the molar value. Several values for one entry are separate records, joined by “and”; a condition that tells them apart may be missing. Identical values can stand only once. Like-named read-outs stand apart in the source and are kept apart here.

Key:
[1] = system: human embryonic kidney cell line 293 T (HEK293T); assay: XTT cell proliferation assay, HEK293T; assay type: cell-based; settings: for pIC50: Table 2, XTT, non-cancerous cells; for selectivity: potency against A2780 compared to HEK293T: ratio of XTT IC50s
Procedure: (§1) (2,3-bis-(2-methoxy-4-nitro-5-sulfophenyl)-2H-tetrazolium-5-carboxanilide) (XTT) assay was used as previously described to evaluate the cytotoxicity of the different Cisplatin derivatives. Briefly, cells (1.5 × 10^4) were plated in RPMI 1640 medium using 96-well plates for 24 h, and then treated for an additional 72 h with the different Cisplatin derivatives. A total of 50 μl of XTT solution were added to each well and incubated for 3 h at 37 °C. The optical density was measured by a multi-well plate spectrophotometer at 450 nanometers with a references’ wavelength of 630 nm. The concentrations inhibiting cell proliferation by 50 % (IC50s) of all tested derivatives were calculated. The experiment was performed in triplicate, and standard deviations were also calculated.

[2] = system: A2780cisR (Cisplatin resistant ovarian cancer cells); assay: XTT cell proliferation assay, A2780cisR; assay type: cell-based, human; settings: for pIC50: Table 1, XTT, 72 h treatment, read-out: IC50 anti-proliferative activity A2780cisR; for increased anti-proliferative potency compared to Cisplatin, A2780cisR: ratio of IC50s vs Cisplatin
Procedure: as §1

[3] = system: A2780 (Cisplatin sensitive ovarian cancer cells); assay: XTT cell proliferation assay, A2780; assay type: cell-based, human; settings: for pIC50: XTT
Procedure: as §1

[4] = system: human embryonic kidney cell line 293A (HEK293A); assay: XTT cell proliferation assay, HEK293A; assay type: cell-based; settings: for pIC50: Table 2, XTT, non-cancerous cells; for selectivity: potency against A2780 compared to HEK293A: ratio of XTT IC50s
Procedure: as §1

[5] = system: human foreskin fibroblast cells (HFF); assay: XTT cell proliferation assay, HFF; assay type: cell-based; settings: for pIC50: Table 2, XTT, non-cancerous cells; for ratio of IC50s against none cancerous cells (HFF) to the cancerous cell line (A2780): ratio of XTT IC50s
Procedure: as §1

[6] = system: cleaved PARP in A2780cisR cells; assay: PathScan cleaved PARP (Asp214) sandwich ELISA, A2780cisR; assay type: cell-based, human; settings: 30 h
Procedure: Cell lysates prepared from treated ovarian cancer cells (30 h) were used for quantitative measurement of cleaved PARP according to manufacturer’s instructions (Cell signaling technology, USA). In our experiments, 20 μg of total lysate proteins from each sample were utilized.

[7] = system: PARP cleavage in A2780 cells; assay: Apoptosis assay: PARP cleavage by immunoblot, A2780; assay type: cell-based, human; settings: 30 h treatment
Procedure: (§2) To monitor apoptosis potential of Cisplatin derivatives we followed cleavage of poly ADP ribose polymerase (PARP) protein [18]. Briefly, cells (2 × 10^5 cells/ml) were treated with Cisplatin derivatives for the indicated time. Cells were collected, washed once with cold PBS, and lysed in buffer [10 mMTris-HCl (pH 7.4), 100 mMNaCl, 1 mM EDTA, 1 mM EGTA, 1 mM NaF, 20 mM Na4P2O7, 2 mM Na3VO4, 1 % Triton x-100, 10 % Glycerol, 0.1 % sodium dodecyl sulfate (SDS), 0.5 % deoxycholate, 1 mM phenylmethylsulfonyl fluoride (PMSF), for 30 min at 4 °C. Cell lysate supernatants (40 μg protein/each) were resolved on 8 % SDS-polyacrylamide gel electrophoresis, transferred to nitrocellulose membranes, and analyzed by immune-blotting with an anti-cleaved PARP antibody (Cell signaling technology, USA ). Anti α-tubulin antibody (Santa Cruz Co., CA, USA) was used as a loading control.

[8] = system: PARP cleavage in A2780cisR cells; assay: Apoptosis assay: PARP cleavage by immunoblot, A2780cisR; assay type: cell-based, human; settings: for concentration causing significant PARP cleavage, A2780cisR: 30 h treatment
Procedure: as §2

[9] = system: K562; chronic myelogenous leukemia (CML) cell lines; assay: XTT cell proliferation assay, K562; assay type: cell-based; settings: for pIC50: Table 1, XTT, 72 h treatment, read-out: IC50 anti-proliferative activity K562; for enhanced anti-CML activity compared to Cisplatin, K562: ratio of IC50s vs Cisplatin
Procedure: as §1

A2780 cells = assay: Clonigenicity assay (soft agar), A2780; assay type: cell-based, human; settings: for pIC50: soft agar, 2 weeks, read-out: IC50 of clonigenicity inhibition A2780; for clonigenicity IC50s values lower than Cisplatin: ovarian cancer cell lines tested (A2780, A2780cisR)
Procedure: (§3) Clonigenicity assay was performed as previously describe. Briefly, cells (1 × 10^4) in 1 ml RPMI 10 % FBS medium were diluted in 1 ml of 0.6 % agar to give a final agar concentration of 0.3 % agar. The cells-agar mixture was poured over a hardened agar base in wells of 12-well plates and allowed to solidify. Once the top layer solidified, 1 ml of medium containing different treatments was placed on top to keep the agar moist. The cells were grown at 37 °C in a 5 % CO2 humidified atmosphere until colonies were visible (2 weeks). The plates were stained for 4 h with 5 mg/ml 3-(4,5-dimethylthiazol-2-yl)-2,5-diphenyltetrazolium bromide (MTT), and the dye was extracted with 1 ml solubilization buffer (20 % SDS, 50 % N,N-dimethyl-formamide, 25 mM HCL) for 24 h. The optical density was measured at 570 nm wavelength with a reference wavelength of 630 nm.

A2780cisR cells = assay: Clonigenicity assay (soft agar), A2780cisR; assay type: cell-based, human; settings: 2 weeks, read-out: IC50 of clonigenicity inhibition A2780cisR
Procedure: as §3

[10] = Table 1, 72 h treatment, read-out: IC50 anti-proliferative activity A2780

SMILES | pIC50 [1] | pIC50 [2] | pIC50 [3, 10] | pIC50 ([3]; Table 2, read-out: IC50 A2780) | pIC50 [4] | pIC50 [5] | ratio of IC50s against none cancerous cells (HFF) to the cancerous cell line (A2780) [5] | increase in levels of cleaved PARP compared to untreated sample ([6]; 25 microM) | concentration causing significant PARP cleavage, A2780 [7] | pIC50 [9] | pIC50 (A2780 cells) | pIC50 (A2780cisR cells) | increase in levels of cleaved PARP compared to untreated sample ([6]; 1 microM) | increase in levels of cleaved PARP compared to untreated sample ([6]; 5 microM) | selectivity: potency against A2780 compared to HEK293T [1] | concentration causing significant PARP cleavage, A2780cisR [8] | increased anti-proliferative potency compared to Cisplatin, A2780cisR [2] | enhanced anti-CML activity compared to Cisplatin, K562 [9] | clonigenicity IC50s values lower than Cisplatin (A2780 cells) | selectivity: potency against A2780 compared to HEK293A [4] | other results
N.N.O=C([O-])C1(C(=O)[O-])CCC1.[Pt+2] [Carboplatin, reference compound] | 4.35 | 3.96 | 4.77 | 4.77 | 3.98 | – | – | – | – | – | – | – | – | – | – | – | – | – | – | – | –
N.N.[Cl][Pt][Cl] [Cisplatin, cis-Diamminedichloroplatinum (II)] | 5.49 | 4.72 | 5.89 | 5.89 | 4.79 | 4.08 | 63 | 2.4 fold | 25 µM | 5.28 | 5.64 | 5.38 | – | – | – | – | – | – | – | – | PARP cleavage in A2780cisR ([8]; 30 h, concentrations below 100 microM): very minimal cleavage of PARP
O=C1[O][Pt]2([NH][C@@H]3CCCC[C@H]3[NH]2)[O]C1=O [Oxaliplatin, reference compound] | – | 4.81 | 4.90 | – | – | – | – | – | – | 5.49 | 6.74 | 5.80 | – | – | – | – | – | – | – | – | –
CCCCCCCC/C=C\CCCCCCCC(=O)[O][Pt]([NH2])([NH2])([Cl])([Cl])[O]C(=O)CCCCCCC/C=C\CCCCCCCC [RJY3] | – | 4.82 | < 4.70 | – | – | – | – | – | – | 5.03 | 7.15 | – | – | – | – | – | – | – | – | – | –
CCCCCCCCCCCC(=O)[O][Pt]([NH2])([NH2])([Cl])([Cl])[O]C(=O)CCCCCCCCCCC [RJY6, Cis, cis, trans-[diamminedichloro-bis-lauratoplatinum(IV)]] | 4.93 | 5.48 | 6.15 | 6.15 | 4.76 | 4.09 | 117 and 117.2 | 21 fold | above 25 microM | 5.89 | 7.82 | 7.89 | 2 fold | 3 fold | 16 fold | above 25 microM | 5-6 fold | 4 folds | 20–30 folds | 24 fold | –
CCCCCCCC(=O)[O][Pt]([NH2])([NH2])([Cl])([Cl])[O]C(=O)CCCCCCC [RJY13, Cis, cis, trans-[diamminedichloro-bis-octanoatoplatinum (IV)]] | 6.30 | 6.24 | 7.10 | 7.10 | 6.15 | 5.62 | 30 | 37 fold | 5 µM | 6.15 | 8.00 | 8.00 | 4 fold | 34 fold | about 10 fold | 5 µM | 33 fold | 7 folds | 20–30 folds | about 10 fold | increased anti-proliferative potency compared to Cisplatin, A2780 ([3]; ratio of IC50s vs Cisplatin): 16 fold
